Values quoted from earlier work, collected in paper PMC7032176 (Asian Journal of Pharmaceutical Sciences, 2018).

Columns and labels:
[1] = at 25 °C

oral bioavailability: up to 6%
water solubility [1]: about 5 ng/ml
Structure (SMILES): CC(C)(Sc1cc(C(C)(C)C)c(O)c(C(C)(C)C)c1)Sc1cc(C(C)(C)C)c(O)c(C(C)(C)C)c1 [Probucol]
